Laboratory results as given in the kinase profiling compilation of Christmann-Franck et al. (2016).

How the values were obtained:
Assay in all cases: KINOMEscan competition binding
Conditions in all cases: compound 1.0 µM
[1] = molecular target: EPHA3 (human) (UniProt P29320)
[2] = tested on: EIF2AK4 KD2 (human), Q9P2K8 [S808G]
[3] = molecular target: PRKCD (human) (UniProt Q05655)
[4] = molecular target: MKNK1 (human) (UniProt Q9BUB5)
[5] = molecular target: EPHA6 (human) (UniProt Q9UF33)
[6] = molecular target: FYN (human) (UniProt P06241)
Chain of FYN (human) (P06241 whole entry, looked up): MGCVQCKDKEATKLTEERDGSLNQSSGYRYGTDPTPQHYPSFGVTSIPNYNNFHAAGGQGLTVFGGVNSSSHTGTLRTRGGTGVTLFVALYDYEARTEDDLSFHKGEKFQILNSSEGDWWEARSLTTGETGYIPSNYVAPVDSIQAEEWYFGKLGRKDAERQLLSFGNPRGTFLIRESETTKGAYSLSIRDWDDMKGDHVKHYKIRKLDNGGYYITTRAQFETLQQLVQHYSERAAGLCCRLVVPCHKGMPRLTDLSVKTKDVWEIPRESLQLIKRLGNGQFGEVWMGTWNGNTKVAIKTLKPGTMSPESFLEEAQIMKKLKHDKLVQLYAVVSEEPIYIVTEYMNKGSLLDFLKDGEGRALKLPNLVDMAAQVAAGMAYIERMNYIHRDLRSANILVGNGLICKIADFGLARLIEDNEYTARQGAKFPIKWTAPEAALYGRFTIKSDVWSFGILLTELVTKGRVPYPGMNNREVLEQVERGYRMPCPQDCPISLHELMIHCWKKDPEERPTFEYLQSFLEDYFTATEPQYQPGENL

[7] = molecular target: PIP4K2B (human) (UniProt P78356)
[8] = molecular target: MELK (human) (UniProt Q14680)
Chain of MELK (human) (Q14680 whole entry, looked up): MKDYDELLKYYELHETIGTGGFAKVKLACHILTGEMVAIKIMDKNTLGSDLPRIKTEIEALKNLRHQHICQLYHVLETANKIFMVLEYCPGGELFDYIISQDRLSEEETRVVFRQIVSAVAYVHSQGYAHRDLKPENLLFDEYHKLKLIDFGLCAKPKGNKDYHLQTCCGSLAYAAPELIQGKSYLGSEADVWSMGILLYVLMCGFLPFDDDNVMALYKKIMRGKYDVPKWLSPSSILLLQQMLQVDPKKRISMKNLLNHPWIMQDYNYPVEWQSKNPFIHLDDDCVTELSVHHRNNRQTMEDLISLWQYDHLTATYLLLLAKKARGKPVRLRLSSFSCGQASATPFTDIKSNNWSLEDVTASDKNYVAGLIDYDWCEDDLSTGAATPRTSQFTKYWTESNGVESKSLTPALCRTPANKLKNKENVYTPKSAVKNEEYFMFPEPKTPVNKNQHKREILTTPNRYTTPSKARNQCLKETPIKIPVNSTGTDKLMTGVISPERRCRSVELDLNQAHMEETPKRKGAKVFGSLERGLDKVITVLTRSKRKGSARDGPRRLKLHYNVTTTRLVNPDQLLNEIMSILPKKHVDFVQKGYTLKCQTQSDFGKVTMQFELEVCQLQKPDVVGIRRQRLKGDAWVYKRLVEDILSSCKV

[9] = molecular target: TNK1 (human) (UniProt Q13470)
[10] = molecular target: FGR (human) (UniProt P09769)
[11] = tested on: MET (human), P08581 [M1250T]
[12] = molecular target: TSSK1B (human) (UniProt Q9BXA7)
[13] = molecular target: BMPR1B (human) (UniProt O00238)
[14] = molecular target: BMPR1A (human) (UniProt P36894)
[15] = tested on: FGFR3 (human), P22607 [G697C]
Chain of FGFR3 (human), P22607 [G697C] (P22607 whole entry G697C, looked up): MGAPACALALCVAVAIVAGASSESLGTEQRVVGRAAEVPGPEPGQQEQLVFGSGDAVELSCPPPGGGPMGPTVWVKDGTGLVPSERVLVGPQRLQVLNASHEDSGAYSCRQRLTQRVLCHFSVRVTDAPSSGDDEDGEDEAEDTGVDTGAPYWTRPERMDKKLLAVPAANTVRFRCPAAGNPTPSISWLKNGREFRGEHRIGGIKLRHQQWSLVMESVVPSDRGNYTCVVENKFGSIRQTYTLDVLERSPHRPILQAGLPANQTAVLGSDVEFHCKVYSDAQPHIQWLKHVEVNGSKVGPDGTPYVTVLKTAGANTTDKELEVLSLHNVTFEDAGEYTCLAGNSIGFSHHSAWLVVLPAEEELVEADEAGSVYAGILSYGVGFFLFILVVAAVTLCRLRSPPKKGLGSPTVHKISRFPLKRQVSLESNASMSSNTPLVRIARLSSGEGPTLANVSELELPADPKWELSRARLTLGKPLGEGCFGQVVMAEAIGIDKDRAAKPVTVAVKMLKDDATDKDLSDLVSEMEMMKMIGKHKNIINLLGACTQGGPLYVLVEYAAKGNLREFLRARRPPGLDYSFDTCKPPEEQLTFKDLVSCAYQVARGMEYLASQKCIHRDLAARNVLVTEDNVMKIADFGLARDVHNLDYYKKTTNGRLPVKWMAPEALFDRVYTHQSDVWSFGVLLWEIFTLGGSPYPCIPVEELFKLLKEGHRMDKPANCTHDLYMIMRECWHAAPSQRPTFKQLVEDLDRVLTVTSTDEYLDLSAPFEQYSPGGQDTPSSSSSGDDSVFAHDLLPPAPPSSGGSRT

[16] = molecular target: INSRR (human) (UniProt P14616)
Chain of INSRR (human) (P14616 whole entry, looked up): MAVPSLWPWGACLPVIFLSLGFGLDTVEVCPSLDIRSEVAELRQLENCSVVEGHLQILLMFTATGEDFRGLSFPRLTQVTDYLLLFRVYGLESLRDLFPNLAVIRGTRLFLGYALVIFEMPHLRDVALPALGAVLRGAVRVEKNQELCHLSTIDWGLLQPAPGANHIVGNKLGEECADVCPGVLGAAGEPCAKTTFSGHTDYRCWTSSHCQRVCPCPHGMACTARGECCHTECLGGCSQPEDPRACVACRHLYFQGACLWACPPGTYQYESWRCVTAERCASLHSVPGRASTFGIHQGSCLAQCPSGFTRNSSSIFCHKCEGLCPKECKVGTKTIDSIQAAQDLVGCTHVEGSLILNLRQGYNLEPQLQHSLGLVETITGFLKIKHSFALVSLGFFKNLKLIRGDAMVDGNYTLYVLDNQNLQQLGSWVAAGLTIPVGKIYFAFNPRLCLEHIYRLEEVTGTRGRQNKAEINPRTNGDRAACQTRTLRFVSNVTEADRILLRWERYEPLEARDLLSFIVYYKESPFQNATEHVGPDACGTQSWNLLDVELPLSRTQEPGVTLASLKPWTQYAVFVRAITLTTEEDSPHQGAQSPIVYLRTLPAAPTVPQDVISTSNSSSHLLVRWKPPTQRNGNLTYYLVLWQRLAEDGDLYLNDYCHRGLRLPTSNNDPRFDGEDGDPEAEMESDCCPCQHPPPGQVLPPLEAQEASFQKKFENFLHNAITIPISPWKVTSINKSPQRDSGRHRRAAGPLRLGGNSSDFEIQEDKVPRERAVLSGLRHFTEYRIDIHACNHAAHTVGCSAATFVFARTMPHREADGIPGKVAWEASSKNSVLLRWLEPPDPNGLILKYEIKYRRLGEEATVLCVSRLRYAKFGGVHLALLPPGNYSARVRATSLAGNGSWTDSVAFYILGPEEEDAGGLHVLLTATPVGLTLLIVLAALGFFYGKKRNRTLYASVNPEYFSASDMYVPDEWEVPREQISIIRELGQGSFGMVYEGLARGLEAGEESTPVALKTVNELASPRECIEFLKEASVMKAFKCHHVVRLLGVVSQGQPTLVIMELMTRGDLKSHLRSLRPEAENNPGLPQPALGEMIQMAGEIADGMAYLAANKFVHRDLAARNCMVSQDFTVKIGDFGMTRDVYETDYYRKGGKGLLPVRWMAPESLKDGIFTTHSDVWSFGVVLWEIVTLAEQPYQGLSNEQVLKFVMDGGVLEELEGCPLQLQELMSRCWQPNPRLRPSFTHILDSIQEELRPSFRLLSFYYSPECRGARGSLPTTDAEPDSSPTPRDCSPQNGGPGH

[17] = molecular target: EIF2AK1 (human) (UniProt Q9BQI3)
[18] = molecular target: MAP2K2 (human) (UniProt P36507)
[19] = molecular target: RPS6KA1 KD2 (human) (UniProt Q15418)
Chain of RPS6KA1 KD2 (human) (Q15418 whole entry, looked up): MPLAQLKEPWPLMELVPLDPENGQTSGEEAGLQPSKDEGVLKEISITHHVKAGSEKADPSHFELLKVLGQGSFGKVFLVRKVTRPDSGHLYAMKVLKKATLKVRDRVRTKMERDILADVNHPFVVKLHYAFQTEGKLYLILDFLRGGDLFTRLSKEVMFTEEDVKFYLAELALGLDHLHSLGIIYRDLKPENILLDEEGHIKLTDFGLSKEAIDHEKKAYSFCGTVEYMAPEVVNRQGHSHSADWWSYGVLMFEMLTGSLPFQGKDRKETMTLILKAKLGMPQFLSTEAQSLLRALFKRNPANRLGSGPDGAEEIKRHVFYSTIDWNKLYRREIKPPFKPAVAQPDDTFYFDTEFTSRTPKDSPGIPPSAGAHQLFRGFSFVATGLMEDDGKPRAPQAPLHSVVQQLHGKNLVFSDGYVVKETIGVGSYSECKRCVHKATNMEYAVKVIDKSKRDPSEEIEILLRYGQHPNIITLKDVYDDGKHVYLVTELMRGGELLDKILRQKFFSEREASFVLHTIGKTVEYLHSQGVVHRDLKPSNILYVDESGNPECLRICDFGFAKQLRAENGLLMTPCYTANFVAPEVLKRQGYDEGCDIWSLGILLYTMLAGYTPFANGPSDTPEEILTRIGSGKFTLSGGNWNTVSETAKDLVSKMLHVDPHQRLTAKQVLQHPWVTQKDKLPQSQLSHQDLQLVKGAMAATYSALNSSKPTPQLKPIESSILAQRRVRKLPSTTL

[20] = molecular target: ACVR1 (human) (UniProt Q04771)
Chain of ACVR1 (human) (Q04771 whole entry, looked up): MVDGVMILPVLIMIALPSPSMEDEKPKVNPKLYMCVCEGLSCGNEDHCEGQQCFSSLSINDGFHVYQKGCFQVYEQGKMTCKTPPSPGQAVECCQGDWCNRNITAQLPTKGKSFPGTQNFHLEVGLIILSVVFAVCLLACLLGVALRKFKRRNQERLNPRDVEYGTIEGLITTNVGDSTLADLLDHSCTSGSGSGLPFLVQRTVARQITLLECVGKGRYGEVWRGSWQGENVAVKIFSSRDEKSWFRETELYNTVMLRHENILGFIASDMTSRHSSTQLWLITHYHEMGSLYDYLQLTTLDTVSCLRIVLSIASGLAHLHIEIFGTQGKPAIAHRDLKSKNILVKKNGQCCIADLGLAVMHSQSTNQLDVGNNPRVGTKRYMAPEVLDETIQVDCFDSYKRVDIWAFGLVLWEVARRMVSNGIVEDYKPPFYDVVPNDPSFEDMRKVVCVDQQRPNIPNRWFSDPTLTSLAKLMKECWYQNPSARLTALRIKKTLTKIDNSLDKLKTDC

[21] = molecular target: NEK3 (human) (UniProt P51956)
[22] = molecular target: RPS6KA4 KD2 (human) (UniProt O75676)
[23] = molecular target: MAP4K3 (human) (UniProt Q8IVH8)
[24] = molecular target: STK35 (human) (UniProt Q8TDR2)
[25] = molecular target: DDR1 (human) (UniProt Q08345)
[26] = molecular target: CDC42BPG (human) (UniProt Q6DT37)
[27] = molecular target: CDK2 (human) (UniProt P24941)
[28] = molecular target: ROCK1 (human) (UniProt Q13464)
[29] = molecular target: SNRK (human) (UniProt Q9NRH2)
[30] = molecular target: FES (human) (UniProt P07332)
[31] = molecular target: CDK13 (human) (UniProt Q14004)
[32] = molecular target: LTK (human) (UniProt P29376)
[33] = molecular target: RIOK3 (human) (UniProt O14730)
Chain of RIOK3 (human) (O14730 whole entry, looked up): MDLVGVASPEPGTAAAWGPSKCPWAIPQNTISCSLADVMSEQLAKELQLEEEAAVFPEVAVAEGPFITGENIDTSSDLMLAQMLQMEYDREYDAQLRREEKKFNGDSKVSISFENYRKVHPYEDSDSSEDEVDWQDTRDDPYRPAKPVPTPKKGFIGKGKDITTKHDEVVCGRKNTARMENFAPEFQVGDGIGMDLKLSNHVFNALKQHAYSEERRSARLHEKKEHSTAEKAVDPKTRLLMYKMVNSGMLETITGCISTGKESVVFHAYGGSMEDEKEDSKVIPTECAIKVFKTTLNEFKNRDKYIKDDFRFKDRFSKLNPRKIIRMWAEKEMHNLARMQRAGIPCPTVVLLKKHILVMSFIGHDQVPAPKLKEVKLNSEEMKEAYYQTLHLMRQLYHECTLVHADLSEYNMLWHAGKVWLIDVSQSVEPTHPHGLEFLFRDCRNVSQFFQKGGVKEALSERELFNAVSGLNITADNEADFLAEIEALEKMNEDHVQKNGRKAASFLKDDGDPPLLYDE

[34] = molecular target: DYRK1B (human) (UniProt Q9Y463)
[35] = molecular target: PRKCH (human) (UniProt P24723)
[36] = molecular target: CAMK1D (human) (UniProt Q8IU85)
[37] = molecular target: PAK2 (human) (UniProt Q13177)
[38] = molecular target: DCLK3 (human) (UniProt Q9C098)
[39] = molecular target: FRK (human) (UniProt P42685)
[40] = molecular target: STK17A (human) (UniProt Q9UEE5)
[41] = molecular target: MAP2K3 (human) (UniProt P46734)
[42] = tested on: ABL1 (human), P00519 [E255K]
[43] = molecular target: LATS1 (human) (UniProt O95835)

SMILES: COCCNCCCn1c(C(=O)CF)c(-c2ccc(C)cc2)c2c(N)ncnc21
- kinase still bound, per cent of control [1]: 88%
- kinase still bound, per cent of control [2]: 100%
- kinase still bound, per cent of control [3]: 90%
- kinase still bound, per cent of control [4]: 100%
- kinase still bound, per cent of control [5]: 82%
- kinase still bound, per cent of control [6]: 87%
- kinase still bound, per cent of control [7]: 94%
- kinase still bound, per cent of control [8]: 95%
- kinase still bound, per cent of control [9]: 100%
- kinase still bound, per cent of control [10]: 93%
- kinase still bound, per cent of control [11]: 95%
- kinase still bound, per cent of control [12]: 100%
- kinase still bound, per cent of control [13]: 85%
- kinase still bound, per cent of control [14]: 100%
- kinase still bound, per cent of control [15]: 91%
- kinase still bound, per cent of control [16]: 100%
- kinase still bound, per cent of control [17]: 100%
- kinase still bound, per cent of control [18]: 100%
- kinase still bound, per cent of control [19]: 31%
- kinase still bound, per cent of control [20]: 100%
- kinase still bound, per cent of control [21]: 70%
- kinase still bound, per cent of control [22]: 100%
- kinase still bound, per cent of control [23]: 100%
- kinase still bound, per cent of control [24]: 99%
- kinase still bound, per cent of control [25]: 100%
- kinase still bound, per cent of control [26]: 84%
- kinase still bound, per cent of control [27]: 83%
- kinase still bound, per cent of control [28]: 98%
- kinase still bound, per cent of control [29]: 99%
- kinase still bound, per cent of control [30]: 100%
- kinase still bound, per cent of control [31]: 90%
- kinase still bound, per cent of control [32]: 100%
- kinase still bound, per cent of control [33]: 68%
- kinase still bound, per cent of control [34]: 96%
- kinase still bound, per cent of control [35]: 100%
- kinase still bound, per cent of control [36]: 100%
- kinase still bound, per cent of control [37]: 85%
- kinase still bound, per cent of control [38]: 100%
- kinase still bound, per cent of control [39]: 81%
- kinase still bound, per cent of control [40]: 98%
- kinase still bound, per cent of control [41]: 97%
- kinase still bound, per cent of control [42]: 90%
- kinase still bound, per cent of control [43]: 100%
